Laboratory results: patent US20240092727A1, “CRYSTALLINE 4-((L-VALYL)OXY)BUTANOIC ACID” (XWPHARMA LTD., priority 2022, published 2024)

Columns and labels:
[1] = Sealed storage stability, other studies, 36 months; assay type: physicochemical; conditions: 25±2° C., for 36 months; stable = absorbs less than 2 wt % water and impurity content of less than 2 wt %
Excerpt: (§1) “Sealed storage stability” refers to the stability of a compound that is enclosed within two sealed polyethylene bags with a desiccant material placed between the two polyethylene bags and the two sealed polyethylene bags are enclosed within a sealed one-layer aluminum bag.
Stability is defined as the sample of crystalline 4-((L-valyl)oxy)butanoic acid absorbs less than 2 wt % water and an impurity content of less than 2 wt % for a period of time under the indicated sealed storage conditions.

[2] = Sealed storage stability study (ICH Q1A (R2)), four storage conditions, 3- and 6-month timepoints; assay type: physicochemical; parameters: key to Crystalline Form: C = Conforms; N/A = Not Applicable; conditions: for Crystalline Form: XRPD; for Crystalline Form / Assay / Total Impurities / Water Content: sealed storage
Excerpt: as §1
Crystalline 4-((L-valyl)oxy)butanoic acid was packaged in double low-density polyethylene (LDPE) zipper bags and sealed. The packaged samples were then placed within an aluminum foil outer bag (polyethylene, polyethylene terephthalate three-layer composite) and sealed. The fully packaged samples were placed in stability chambers for the duration of the sealed storage stability study.
Sealed storage stability studies were carried out under four sets of conditions external to the packaged crystalline 4-((L-valyl)oxy)butanoic acid: • 1. Accelerated conditions ([…], 75±5% RH). • 2. Intermediate storage condition ([…], 65±5% RH). • 3. Long-term storage condition (25±2° C., […]). • 4. 2-8° C. conditions.
The sealed storage stability of crystalline 4-((L-valyl)oxy)butanoic acid (1) was tested according to the International Council for Harmonization of Technical Requirements for Pharmaceuticals for Human Use (ICH) document Q1A (R2) “Stability Testing of New Drug Substances and Products.” Accordingly, samples were pulled at 3- and 6-month timepoints. The assay percentage of the crystalline 4-((L-valyl)oxy)butanoic acid was determined by electrochemical titration using acetic acid as the solvent and perchloric acid as the titrant. Water content was tested by Karl Fischer titration (Karl Fisher Titrator: Mettler V30). Impurities were measured by HPLC (HPLC Instrument: Waters Arc HPLC system with CAD; Column: Waters Atlantis T3, 4.6×150 mm, 3 μm). The samples were analyzed by XRPD analysis (XRPD Instrument: Bruker D8 advance). The sealed storage stability results of crystalline 4-((L-valyl)oxy)butanoic acid stored under the four storage conditions are summarized in Table 2.

[3] = up to 6 months under all sealed storage conditions

SMILES: CC(C)[C@H](N)C(=O)OCCCC(=O)O [4-((L-valyl)oxy)butanoic acid]
- Sealed storage stability [1]: sealed storage stable
- Crystalline Form ([2]; 2-8° C., 6 M): C
- Crystalline Form ([2]; 2-8° C., D 0): C
- Crystalline Form ([2]; 25 ± 2° C., 60 ± 5% RH, 6 M): C
- Crystalline Form ([2]; 25 ± 2° C., 60 ± 5% RH, D 0): C
- Crystalline Form ([2]; 30 ± 2° C., 65 ± 5% RH, 3 M): C
- Crystalline Form ([2]; 30 ± 2° C., 65 ± 5% RH, 6 M): C
- Crystalline Form ([2]; 30 ± 2° C., 65 ± 5% RH, D 0): C
- Crystalline Form ([2]; 40 ± 2° C., 75 ± 5% RH, 6 M): C
- Crystalline Form ([2]; 40 ± 2° C., 75 ± 5% RH, D 0): C
- Assay ([2]; 2-8° C., 3 M): 98.8 wt %
- Total Impurities ([2]; 2-8° C., 3 M): 0.4 wt %
- Water Content ([2]; 2-8° C., 3 M): 0.2 wt %
- Assay ([2]; 2-8° C., 6 M): 99.8 wt %
- Total Impurities ([2]; 2-8° C., 6 M): 0.2 wt %
- Water Content ([2]; 2-8° C., 6 M): 0.3 wt %
- Assay ([2]; 2-8° C., D 0): 99.4 wt %
- Total Impurities ([2]; 2-8° C., D 0): 0.3 wt %
- Water Content ([2]; 2-8° C., D 0): 0.1 wt %
- Assay ([2]; 25 ± 2° C., 60 ± 5% RH, 3 M): 98.8 wt %
- Total Impurities ([2]; 25 ± 2° C., 60 ± 5% RH, 3 M): 0.5 wt %
- Water Content ([2]; 25 ± 2° C., 60 ± 5% RH, 3 M): 0.2 wt %
- Assay ([2]; 25 ± 2° C., 60 ± 5% RH, 6 M): 99.3 wt %
- Total Impurities ([2]; 25 ± 2° C., 60 ± 5% RH, 6 M): 0.4 wt %
- Water Content ([2]; 25 ± 2° C., 60 ± 5% RH, 6 M): 0.3 wt %
- Assay ([2]; 25 ± 2° C., 60 ± 5% RH, D 0): 99.4 wt %
- Total Impurities ([2]; 25 ± 2° C., 60 ± 5% RH, D 0): 0.3 wt %
- Water Content ([2]; 25 ± 2° C., 60 ± 5% RH, D 0): 0.1 wt %
- Assay ([2]; 30 ± 2° C., 65 ± 5% RH, 3 M): 99.9 wt %
- Total Impurities ([2]; 30 ± 2° C., 65 ± 5% RH, 3 M): 0.4 wt %
- Water Content ([2]; 30 ± 2° C., 65 ± 5% RH, 3 M): 0.4 wt %
- Assay ([2]; 30 ± 2° C., 65 ± 5% RH, 6 M): 99.3 wt %
- Total Impurities ([2]; 30 ± 2° C., 65 ± 5% RH, 6 M): 0.4 wt %
- Water Content ([2]; 30 ± 2° C., 65 ± 5% RH, 6 M): 0.1 wt %
- Assay ([2]; 30 ± 2° C., 65 ± 5% RH, D 0): 99.4 wt %
- Total Impurities ([2]; 30 ± 2° C., 65 ± 5% RH, D 0): 0.3 wt %
- Water Content ([2]; 30 ± 2° C., 65 ± 5% RH, D 0): 0.1 wt %
- Assay ([2]; 40 ± 2° C., 75 ± 5% RH, 3 M): 98.8 wt %
- Total Impurities ([2]; 40 ± 2° C., 75 ± 5% RH, 3 M): 0.6 wt %
- Water Content ([2]; 40 ± 2° C., 75 ± 5% RH, 3 M): 0.1 wt %
- Assay ([2]; 40 ± 2° C., 75 ± 5% RH, 6 M): 99.3 wt %
- Total Impurities ([2]; 40 ± 2° C., 75 ± 5% RH, 6 M): 0.7 wt %
- Water Content ([2]; 40 ± 2° C., 75 ± 5% RH, 6 M): 0.3 wt %
- Assay ([2]; 40 ± 2° C., 75 ± 5% RH, D 0): 99.4 wt %
- Total Impurities ([2]; 40 ± 2° C., 75 ± 5% RH, D 0): 0.3 wt %
- Water Content ([2]; 40 ± 2° C., 75 ± 5% RH, D 0): 0.1 wt %
- Chemical stability of the crystalline sample [2, 3]: chemically stable
- Sealed storage stability [2, 3]: stable
